Values belong to the compound of their own block, whether it stands above or below them.
Key:
[1] = Protein binding in Beagle dog serum; assay type: ADME, cell-free, Canis lupus familiaris; conditions: read-out: PPB (converted)
[2] = Total clearance in rat at 1.0 mg/kg, iv; assay type: ADME, organism-based; set-up: dose 1 mg/kg, route intravenous; conditions: in vivo
[3] = Cmax in rat at 1.0 mg/kg, po; assay type: ADME, organism-based; set-up: dose 1 mg/kg, route oral; conditions: in vivo
[4] = target: Beta-3 adrenergic receptor (Canis lupus familiaris, UniProt O02662); assay: Agonist activity at dog recombinant beta3 adrenergic receptor expressed in CHO cells assessed as cAMP accumulation by enzyme immuno assay; assay type: functional, cell-based
Sequence of Beta-3 adrenergic receptor (Canis lupus familiaris, UniProt O02662) (O02662 whole entry): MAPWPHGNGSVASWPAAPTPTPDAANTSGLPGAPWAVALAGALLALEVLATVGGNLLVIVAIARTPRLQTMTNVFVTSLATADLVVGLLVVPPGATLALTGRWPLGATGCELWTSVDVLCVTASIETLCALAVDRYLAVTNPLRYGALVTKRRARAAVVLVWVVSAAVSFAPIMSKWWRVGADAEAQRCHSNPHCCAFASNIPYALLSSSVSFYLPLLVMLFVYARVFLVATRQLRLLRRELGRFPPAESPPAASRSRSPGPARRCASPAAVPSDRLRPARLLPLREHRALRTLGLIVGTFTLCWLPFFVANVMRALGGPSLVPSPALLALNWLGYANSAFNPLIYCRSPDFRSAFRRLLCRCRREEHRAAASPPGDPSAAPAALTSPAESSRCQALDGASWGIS

[5] = target: Beta-1 adrenergic receptor (Homo sapiens, UniProt P08588); assay: Agonist activity at human recombinant beta-1 adrenergic receptor expressed in CHO cells assessed as cAMP accumulation by enzyme immuno assay; assay type: functional, cell-based
Sequence of Beta-1 adrenergic receptor (P08588 whole entry): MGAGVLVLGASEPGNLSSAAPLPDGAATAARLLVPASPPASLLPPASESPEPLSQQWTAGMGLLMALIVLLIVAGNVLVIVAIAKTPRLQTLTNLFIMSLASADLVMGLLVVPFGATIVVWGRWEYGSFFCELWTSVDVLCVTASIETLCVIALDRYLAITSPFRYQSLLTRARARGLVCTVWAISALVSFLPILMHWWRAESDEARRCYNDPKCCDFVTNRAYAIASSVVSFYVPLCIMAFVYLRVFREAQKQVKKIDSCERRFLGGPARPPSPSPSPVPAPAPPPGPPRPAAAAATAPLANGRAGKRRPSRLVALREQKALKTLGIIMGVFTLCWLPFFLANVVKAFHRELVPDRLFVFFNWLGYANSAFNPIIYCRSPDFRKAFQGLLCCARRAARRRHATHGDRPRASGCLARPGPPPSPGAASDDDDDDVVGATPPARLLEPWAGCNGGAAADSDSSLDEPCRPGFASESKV

[6] = Bioavailability in monkey at 0.32 mg/kg, po by cassette assay; assay type: ADME, organism-based, Macaca mulatta; conditions: rhesus monkey, in vivo
[7] = Bioavailability in dog at 0.32 mg/kg, po; assay type: ADME, organism-based, Canis lupus familiaris; conditions: in vivo
[8] = Bioavailability in rat at 1.0 mg/kg, po; assay type: ADME, organism-based; conditions: in vivo
[9] = Cmax in dog at 0.32 mg/kg, po; assay type: ADME, organism-based, Canis lupus familiaris; set-up: dose 0.32 mg/kg, route oral; conditions: in vivo
[10] = Terminal half life in rat plasma at 1.0 mg/kg, iv; assay type: ADME, organism-based; set-up: dose 1 mg/kg, route intravenous; conditions: read-out: beta t1/2 (converted)
[11] = species on record: Canis familiaris; assay: cells; conditions: Canis lupus familiaris, 3 h
Description: Inhibition of carbachol-induced increase in intravesical pressure in intraduodenally dosed Beagle dog OAB model for 180 mins

[12] = Total clearance in dog at 0.32 mg/kg, iv; assay type: ADME, organism-based, Canis lupus familiaris; set-up: dose 0.32 mg/kg, route intravenous; conditions: in vivo
[13] = Metabolic stability assessed as intrinsic clearance in monkey liver microsome in presence of NADPH-generating system; assay type: ADME, Macaca mulatta; conditions: rhesus monkey, liver microsomes
[14] = Metabolic stability assessed as intrinsic clearance in human liver microsome in presence of NADPH-generating system; assay type: ADME; conditions: liver microsomes
[15] = Terminal half life in monkey plasma at 0.32 mg/kg, iv by cassette assay; assay type: ADME, organism-based, Macaca mulatta; set-up: dose 0.32 mg/kg, route intravenous; conditions: rhesus monkey, read-out: beta t1/2 (converted)
[16] = Total clearance in monkey at 0.32 mg/kg, iv by cassette assay; assay type: ADME, organism-based, Macaca mulatta; set-up: dose 0.32 mg/kg, route intravenous; conditions: rhesus monkey, in vivo
[17] = Metabolic stability assessed as intrinsic clearance in dog liver microsome in presence of NADPH-generating system; assay type: ADME, Canis lupus familiaris; conditions: liver microsomes
[18] = target: Beta-3 adrenergic receptor (Homo sapiens, UniProt P13945); assay: Agonist activity at human recombinant beta3 adrenergic receptor expressed in CHO cells assessed as cAMP accumulation by enzyme immuno assay; assay type: functional, cell-based
Sequence of Beta-3 adrenergic receptor (Homo sapiens, UniProt P13945) (P13945 whole entry): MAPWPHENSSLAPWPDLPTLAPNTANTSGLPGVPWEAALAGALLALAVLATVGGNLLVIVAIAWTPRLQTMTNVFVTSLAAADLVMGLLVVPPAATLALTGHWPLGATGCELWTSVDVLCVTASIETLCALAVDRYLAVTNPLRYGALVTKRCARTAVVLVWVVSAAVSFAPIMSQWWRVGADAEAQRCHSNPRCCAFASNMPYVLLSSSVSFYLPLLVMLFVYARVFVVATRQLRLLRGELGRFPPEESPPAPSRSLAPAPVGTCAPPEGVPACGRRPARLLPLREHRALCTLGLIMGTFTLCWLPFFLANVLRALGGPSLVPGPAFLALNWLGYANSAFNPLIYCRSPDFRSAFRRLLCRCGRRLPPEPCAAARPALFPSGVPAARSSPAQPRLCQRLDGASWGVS

[19] = target: Beta-2 adrenergic receptor (Homo sapiens, UniProt P07550); assay: Agonist activity at human recombinant beta2 adrenergic receptor expressed in CHO cells assessed as cAMP accumulation by enzyme immuno assay; assay type: functional, cell-based
Sequence of Beta-2 adrenergic receptor (P07550 whole entry): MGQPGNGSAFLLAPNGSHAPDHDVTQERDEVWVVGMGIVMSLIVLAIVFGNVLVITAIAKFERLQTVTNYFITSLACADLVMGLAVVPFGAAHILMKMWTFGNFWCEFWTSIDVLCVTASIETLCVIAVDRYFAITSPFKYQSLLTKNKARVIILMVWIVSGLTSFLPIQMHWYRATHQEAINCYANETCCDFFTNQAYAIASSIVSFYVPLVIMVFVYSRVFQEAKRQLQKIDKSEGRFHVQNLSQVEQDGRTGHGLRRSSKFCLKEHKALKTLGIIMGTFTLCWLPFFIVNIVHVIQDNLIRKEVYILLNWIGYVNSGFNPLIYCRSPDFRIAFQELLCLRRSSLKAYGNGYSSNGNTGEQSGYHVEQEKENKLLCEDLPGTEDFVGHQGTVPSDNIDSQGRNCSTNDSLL

[20] = AUC (0 to 24 hrs) in monkey at 0.32 mg/kg, po by cassette assay; assay type: ADME, organism-based, Macaca mulatta; set-up: time < 24 hr, dose 0.32 mg/kg, route oral; conditions: rhesus monkey, plasma
[21] = Metabolic stability assessed as intrinsic clearance in rat liver microsome in presence of NADPH-generating system; assay type: ADME; conditions: liver microsomes
[22] = Terminal half life in dog plasma at 0.32 mg/kg, iv; assay type: ADME, organism-based, Canis lupus familiaris; set-up: dose 0.32 mg/kg, route intravenous; conditions: read-out: beta t1/2 (converted)
[23] = AUC (0 to 24 hrs) in rat at 1.0 mg/kg, po; assay type: ADME, organism-based; set-up: time < 24 hr, dose 1 mg/kg, route oral; conditions: plasma
[24] = AUC (0 to 24 hrs) in dog at 0.32 mg/kg, po; assay type: ADME, organism-based, Canis lupus familiaris; set-up: time < 24 hr, dose 0.32 mg/kg, route oral; conditions: plasma
[25] = Total clearance in monkey at 0.28 mg/kg, iv by cassette assay; assay type: ADME, organism-based, Macaca mulatta; set-up: dose 0.28 mg/kg, route intravenous; conditions: rhesus monkey, in vivo
[26] = Total clearance in rat at 0.26 mg/kg, iv by cassette assay; assay type: ADME, organism-based; set-up: dose 0.26 mg/kg, route intravenous; conditions: in vivo
[27] = Bioavailability in monkey at 0.28 mg/kg, po by cassette assay; assay type: ADME, organism-based, Macaca mulatta; conditions: rhesus monkey, in vivo
[28] = Cmax in monkey at 0.28 mg/kg, po by cassette assay; assay type: ADME, organism-based, Macaca mulatta; set-up: dose 0.28 mg/kg, route oral; conditions: rhesus monkey, in vivo
[29] = Terminal half life in rat plasma at 0.26 mg/kg, iv by cassette assay; assay type: ADME, organism-based; set-up: dose 0.26 mg/kg, route intravenous; conditions: read-out: beta t1/2 (converted)
[30] = Bioavailability in rat at 0.26 mg/kg, po by cassette assay; assay type: ADME, organism-based; conditions: in vivo
[31] = AUC (0 to 24 hrs) in monkey at 0.28 mg/kg, po by cassette assay; assay type: ADME, organism-based, Macaca mulatta; set-up: time < 24 hr, dose 0.28 mg/kg, route oral; conditions: rhesus monkey, plasma
[32] = Cmax in rat at 0.26 mg/kg, po by cassette assay; assay type: ADME, organism-based; set-up: dose 0.26 mg/kg, route oral; conditions: in vivo
[33] = Terminal half life in monkey plasma at 0.28 mg/kg, iv by cassette assay; assay type: ADME, organism-based, Macaca mulatta; set-up: dose 0.28 mg/kg, route intravenous; conditions: rhesus monkey, read-out: beta t1/2 (converted)
[34] = AUC (0 to 24 hrs) in rat at 0.26 mg/kg, po by cassette assay; assay type: ADME, organism-based; set-up: time < 24 hr, dose 0.26 mg/kg, route oral; conditions: plasma
[35] = AUC (0 to 24 hrs) in dog at 0.1 mg/kg, po; assay type: ADME, organism-based, Canis lupus familiaris; set-up: time < 24 hr, dose 0.1 mg/kg, route oral; conditions: plasma
[36] = Bioavailability in dog at 0.1 mg/kg, po; assay type: ADME, organism-based, Canis lupus familiaris; conditions: in vivo
[37] = Total clearance in dog at 0.1 mg/kg, iv; assay type: ADME, organism-based, Canis lupus familiaris; set-up: dose 0.1 mg/kg, route intravenous; conditions: in vivo
[38] = Total clearance in monkey at 0.30 mg/kg, iv by cassette assay; assay type: ADME, organism-based, Macaca mulatta; set-up: dose 0.3 mg/kg, route intravenous; conditions: rhesus monkey, in vivo, 0.3 mg/kg
[39] = Cmax in dog at 0.1 mg/kg, po; assay type: ADME, organism-based, Canis lupus familiaris; set-up: dose 0.1 mg/kg, route oral; conditions: in vivo
[40] = Cmax in monkey at 0.30 mg/kg, po by cassette assay; assay type: ADME, organism-based, Macaca mulatta; set-up: dose 0.3 mg/kg, route oral; conditions: rhesus monkey, in vivo, 0.3 mg/kg
[41] = Bioavailability in monkey at 0.30 mg/kg, po by cassette assay; assay type: ADME, organism-based, Macaca mulatta; conditions: rhesus monkey, in vivo, 0.3 mg/kg
[42] = AUC (0 to 24 hrs) in monkey at 0.30 mg/kg, po by cassette assay; assay type: ADME, organism-based, Macaca mulatta; set-up: time < 24 hr, dose 0.3 mg/kg, route oral; conditions: rhesus monkey, plasma, 0.3 mg/kg

fraction unbound [1]: 0.2
clearance [2]: 8.5 mL/min/kg
Cmax [3]: 21.9 ng/mL
EC50 [4]: 3.2 nM
EC50 [5]: 150 nM
bioavailability [6]: 48.6%
bioavailability [7]: 27%
bioavailability [8]: 12.4%
Cmax [9]: 49.1 ng/mL
half-life [10]: 1.9 h
EC50 [11]: 1.8 nM
clearance [12]: 7.9 mL/min/kg
CLint scaled [13]: 3.8 mL/min/kg
CLint scaled [14]: 2.2 mL/min/kg
half-life [15]: 5.9 h
clearance [16]: 24.3 mL/min/kg
CLint scaled [17]: < 2 mL/min/kg
EC50 [18]: 0.066 nM
EC50 [19]: 3200 nM
AUC(0-t) at 24 h [20]: 90.8 ng·h/mL
CLint scaled [21]: < 2 mL/min/kg
half-life [22]: 7.6 h
AUC(0-t) at 24 h [23]: 208 ng·h/mL
AUC(0-t) at 24 h [24]: 177 ng·h/mL
Compound: CC(C)Cc1cc(-c2ccc(CCNC[C@H](O)c3ccc(N)nc3)cc2)ccc1C(=O)O
ED50 [11]: 0.0161 mg/kg

fraction unbound [1]: 0.1
clearance [25]: 3.4 mL/min/kg
clearance [26]: 15.8 mL/min/kg
bioavailability [27]: 10.7%
EC50 [4]: 1.3 nM
EC50 [5]: 480 nM
bioavailability [7]: 60%
Cmax [28]: 18.6 ng/mL
half-life [29]: 3.3 h
Cmax [9]: 11.4 ng/mL
bioavailability [30]: 82.5%
clearance [12]: 47.7 mL/min/kg
AUC(0-t) at 24 h [31]: 153 ng·h/mL
Cmax [32]: 72.4 ng/mL
half-life [33]: 10.3 h
EC50 [18]: 0.26 nM
EC50 [19]: > 10000 nM
AUC(0-t) at 24 h [24]: 58.1 ng·h/mL
AUC(0-t) at 24 h [34]: 245 ng·h/mL
Compound: O=C(O)c1ccc(-c2ccc(CCNC[C@H](O)c3cccnc3)cc2)cc1OC1CCCCC1

Compound: CCCOc1cc(-c2ccc(C[C@@H](C)NC[C@H](O)c3cccnc3)cc2)ccc1C(=O)O
AUC(0-t) at 24 h [35]: 35.5 ng·h/mL
fraction unbound [1]: 0.18
EC50 [4]: 0.51 nM
EC50 [5]: 190 nM
bioavailability [36]: 54.9%
clearance [37]: 24.3 mL/min/kg
clearance [38]: 47 mL/min/kg
EC50 [11]: 0.28 nM
ED50 [11]: 0.0048 mg/kg
Cmax [39]: 3 ng/mL
Cmax [40]: 8.2 ng/mL
EC50 [18]: 0.064 nM
bioavailability [41]: 57.2%
EC50 [19]: > 1000 nM
AUC(0-t) at 24 h [42]: 65.2 ng·h/mL
